# Data as given in patent EP0563238B1, “IMIDAZOLYL-ALKENOIC ACIDS” (SMITHKLINE BEECHAM CORPORATION, priority 1990, dated 1992).
# Biological target: vascular angiotensin II receptors
# Experiment: 125I-angiotensin II radioligand binding assay
# Conditions: particular fraction from rat mesenteric arteries, 80 pM 125I-angiotensin II, 1 hour at 25°C; concentration needed to displace 50% of the total specifically bound angiotensin II
# Experimental: Angiotensin II antagonist activity of the compounds of Formula (I) is assessed by in vitro and in vivo methods. In vitro antagonist activity is determined by the ability of the compounds to compete with ^125I-angiotensin II for binding to vascular angiotensin II receptors and by their ability to antagonize the contractile response to angiotensin II in the isolated rabbit aorta. In vivo activity is evaluated by the efficacy of the compounds to inhibit the pressor response to exogenous angiotensin II in conscious rats and to lower blood pressure in a rat model of renin dependent hypertension.
# The radioligand binding assay is a modification of a method previously described in detail (Gunther et al., Circ. Res. 47:278, 1980). A particular fraction from rat mesenteric arteries is incubated in Tris buffer with 80 pM of ^125I-angiotensin II with or without angiotensin II antagonists for 1 hour at 25°C. The incubation is terminated by rapid filtration and receptor bound ^125I-angiotensin II trapped on the filter is quantitated with a gamma counter. The potency of angiotensin II antagonists is expressed as the IC50 which is the concentration of antagonist needed to displace 50% of the total specifically bound angiotensin II.
smiles,measurement,value
"CCCCc1ncc(/C=C(\Cc2cccs2)C(=O)O)n1-c1ccc(C(=O)O)cc1 [Example 1, (E)-3-[2-n-Butyl-1-{4-carboxyphenyl}-1H-imidazo-5-yl]-2-(2-thienyl)methyl-2-propenoic acid]",IC50,~250 nM
